Experimental data published in patent publication US20170247458A1, “Safety for Treating Cancers with a Glycosylated Chimeric Antibody to EGFR” (Sorrento Therapeutics, Inc., priority 2016, published 2017).

Columns and labels:
[1] = human, in vivo
[2] = tested on: EGFR positive, metastatic colorectal cancer; test: Phase 2/3 study, radiologic response and survival
[3] = Phase 2/3 study, safety evaluation and adverse events; settings: Table 7

## CCc1c2c(nc3ccc(OC(=O)N4CCC(N5CCCCC5)CC4)cc13)-c1cc3c(c(=O)n1C2)COC(=O)[C@]3(O)CC [Irinotecan monotherapy, irinotecan]
[1]
  At least one ADR, number of patients: 126
  At least one ADR, share of patients: 74.1%
  At least one AE which lead to stop drug treatment, number of patients: 27
  At least one AE which lead to stop drug treatment, share of patients: 15.9%
  At least one AE, number of patients: 148
  At least one AE, share of patients: 87.1%
  At least one Level □ or above ADR, number of patients: 10
  At least one Level □ or above ADR, share of patients: 5.9%
  At least one Level □ or above AE, number of patients: 12
  At least one Level □ or above AE, share of patients: 7.1%
  At least one Level □ or above important AE, number of patients: 11
  At least one Level □ or above important AE, share of patients: 6.5%
  At least one SAE, number of patients: 8
  At least one SAE, share of patients: 4.7%
  At least one important AE, number of patients: 120
  At least one important AE, share of patients: 70.6%
  At least one test drug-related SAE, number of patients: 1
  At least one test drug-related SAE, share of patients: 0.6%
  Grade 3-4 Abdominal pain, number: 0
  Grade 3-4 Acne-like rash, number: 0
  Grade 3-4 Anemia, number: 3
  Grade 3-4 Anemia, value in parentheses: (1.8)
  Grade 3-4 Asthenia, number: 6
  Grade 3-4 Asthenia, value in parentheses: (3.7)
  Grade 3-4 Diarrhea, number: 12
  Grade 3-4 Diarrhea, value in parentheses: (7.3)
  Grade 3-4 Fever, number: 1
  Grade 3-4 Fever, value in parentheses: (0.9)
  Grade 3-4 Nausea and vomiting, number: 16
  Grade 3-4 Nausea and vomiting, value in parentheses: (9.8)
  Grade 3-4 Neutropenia, number: 14
  Grade 3-4 Neutropenia, value in parentheses: (8.5)
  Grade 3-4 Stomatitis, number: 0
  Grade 3-4 Thrombocytopenia, number: 0
  Grade 3-4 adverse events, Any, number: 57
[2]; Ph2/3 trial
  Complete response, number of patients: 1
  Complete response, rate in parentheses: 0.6
  Partial response, number of patients: 20
  Partial response, rate in parentheses: 12.2
  Progressive disease, number of patients: 44
  Progressive disease, rate in parentheses: 26.8
  Stable disease, number of patients: 86
  Stable disease, rate in parentheses: 52.4
  Time to disease progression: 4.1 months
  Unable to evaluate, number of patients: 13
  Unable to evaluate, rate in parentheses: 7.9
[2]; sum of CR and PR
  Overall response rate, number of patients: 21
[2]; sum of CR and PR, interval in brackets not copied
  Overall response rate, rate in parentheses: 12.8
[2]; sum of CR, PR and SD
  Disease control rate, number of patients: 107
[2]; sum of CR, PR and SD, interval in brackets not copied
  Disease control rate, rate in parentheses: 65.2
[3]
  Test drug-related death AE, number of patients: 0
